≈ marks a conversion by molar mass, not a printed value. Calls of active or inactive are those of the source. The rule behind the calls is not given here.
How the values were obtained:
[1] = test system: P388; test: Cytotoxicity against mouse P388 cells at 0.5 ug/mL; assay type: functional
[2] = test system: HCT-8; test: Cytotoxicity against human HCT8 cells at 10 ug/mL; assay type: functional
[3] = test system: OVCAR-5; test: Cytotoxicity against human OVCAR5 cells; assay type: functional, cell-based
[4] = test system: SK-OV-3; test: Cytotoxicity against human SK-OV-3 cells; assay type: functional, cell-based
[5] = test system: A498; test: Cytotoxicity against human A498 cells; assay type: functional
[6] = test system: ACHN; test: Cytotoxicity against human ACHN cells; assay type: functional, cell-based
[7] = test system: CAKI-1; test: Cytotoxicity against human CAKI1 cells; assay type: functional
[8] = test system: SN12C; test: Cytotoxicity against human SN12C cells; assay type: functional
[9] = test system: TK-10; test: Cytotoxicity against human TK10 cells; assay type: functional
[10] = test system: UO-31; test: Cytotoxicity against human UO31 cells; assay type: functional
[11] = test system: PC-3; test: Cytotoxicity against human PC3 cells; assay type: functional, cell-based; details: Homo sapiens, PC-3
[12] = Cytotoxicity against human MCF7/ADR-RES cells; assay type: functional; details: NCI/ADR-RES
[13] = Cytotoxicity against human RES MDA-MB-231/ATCC cells; assay type: functional
[14] = test system: MDA-N; test: Cytotoxicity against human MDA-N cells; assay type: functional
[15] = test system: BT-549; test: Cytotoxicity against human BT-549 cells; assay type: functional
[16] = test system: T47D; test: Cytotoxicity against human T47D cells; assay type: functional
[17] = test system: A549; test: Cytotoxicity against human A549 cells; assay type: functional, cell-based; details: Homo sapiens, A549
[18] = test system: HCT-116; test: Cytotoxicity against human HCT116 cells; assay type: functional, cell-based
[19] = test system: MCF7; test: Cytotoxicity against human MCF7 cells; assay type: functional, cell-based; details: Homo sapiens, MCF7
[20] = test system: NCI-H460; test: Cytotoxicity against human NCI-H460 cells; assay type: functional, cell-based; details: Homo sapiens, NCI-H460
[21] = test system: DU-145; test: Cytotoxicity against human DU145 cells; assay type: functional, cell-based; details: Homo sapiens, DU-145; read-out: GI50
[22] = test system: 786-0; test: Cytotoxicity against human renal 7860 cells by soft agar assay; assay type: functional
[23] = Cytotoxicity against human CFUGM; assay type: functional; details: CFU-GM
[24] = Cytotoxicity against mouse Ehrlich Ascites carcinoma by […] assay; assay type: functional
[25] = Cytotoxicity against human CCRF-GEM cells; assay type: functional
[26] = Cytotoxicity against human HB60 cells; assay type: functional
[27] = Cytotoxicity against human K652 cells; assay type: functional
[28] = test system: MOLT-4; test: Cytotoxicity against human MOLT4 cells
[29] = Cytotoxicity against human RPMI8266 cells; assay type: functional
[30] = test system: EKVX; test: Cytotoxicity against human EKVX cells; assay type: functional
[31] = test system: HOP-62; test: Cytotoxicity against human HOP62 cells; assay type: functional
[32] = test system: HOP-92; test: Cytotoxicity against human HOP92 cells; assay type: functional
[33] = test system: NCI-H23; test: Cytotoxicity against human NCI-H23 cells; assay type: functional, cell-based
[34] = test system: NCI-H322M; test: Cytotoxicity against human NCI-H322M cells; assay type: functional
[35] = test system: COLO 205; test: Cytotoxicity against human COLO205 cells
[36] = test system: HCC 2998; test: Cytotoxicity against human HCC2998 cells; assay type: functional, cell-based
[37] = test system: HCT-15; test: Cytotoxicity against human HCT15 cells; assay type: functional, cell-based
[38] = test system: HT-29; test: Cytotoxicity against human HT29 cells; assay type: functional
[39] = test system: KM12; test: Cytotoxicity against human KM12 cells; assay type: functional, cell-based
[40] = test system: SW-620; test: Cytotoxicity against human SW620 cells; assay type: functional
[41] = test system: SNB-19; test: Cytotoxicity against human SNB19 cells; assay type: functional
[42] = test system: U-251; test: Cytotoxicity against human U251 cells; assay type: functional, cell-based
[43] = test system: LOX IMVI; test: Cytotoxicity against human LOXI MVI cells; assay type: functional, cell-based
[44] = test system: SK-MEL-5; test: Cytotoxicity against human SK-MEL-5 cells; assay type: functional
[45] = test system: SK-MEL-2; test: Cytotoxicity against human SK-MEL-2 cells; assay type: functional
[46] = test system: SK-MEL-28; test: Cytotoxicity against human SK-MEL-28 cells; assay type: functional
[47] = test system: UACC-257; test: Cytotoxicity against human UACC257 cells; assay type: functional
[48] = test system: UACC-62; test: Cytotoxicity against human UACC62 cells; assay type: functional
[49] = test system: IGROV-1; test: Cytotoxicity against human IGROV1 cells; assay type: functional
[50] = test system: OVCAR-3; test: Cytotoxicity against human OVCAR-3 cells; assay type: functional, cell-based
[51] = test system: OVCAR-4; test: Cytotoxicity against human OVCAR4 cells; assay type: functional, cell-based
[52] = test system: SF-268; test: Cytotoxicity against human SF268 cells; assay type: functional, cell-based
[53] = test system: HeLa; test: Cytotoxicity against human HeLa cells; assay type: functional, cell-based
[54] = test system: MIA PaCa-2; test: Cytotoxicity against human MIA-PaCa2 cells
[55] = test system: SF-268; test: Cytotoxicity against human SF268 cells at 30 uM; assay type: functional, cell-based
[56] = test system: P388; test: Cytotoxicity against mouse P388 cells; assay type: functional, cell-based; details: Mus musculus, P388; read-out: ED50 (the source's name)
[57] = Cytotoxicity against human KB16 cells; assay type: functional, cell-based
[58] = test system: EL4; test: Cytotoxicity against […] cells; assay type: functional, cell-based; details: Mus musculus
[59] = molecular target: Protein kinase C epsilon type (Homo sapiens, UniProt Q02156); test: Antagonist activity at protein kinase C epsilon; assay type: functional
[60] = molecular target: T1, Protein kinase C gamma type (Homo sapiens, UniProt P05129); test: Antagonist activity at protein kinase C gamma; assay type: functional
[61] = molecular target: Protein kinase C zeta type (Homo sapiens, UniProt Q05513); test: Antagonist activity at protein kinase C zeta; assay type: functional
[62] = test system: P388; test: Cytotoxicity against mouse P388 cells at 0.05 ug/ml; assay type: functional
[63] = test system: Candida albicans; test: Antifungal activity against Candida albicans; assay type: functional
[64] = test system: Aspergillus fumigatus; test: Antifungal activity against Aspergillus fumigatus; assay type: functional
[65] = molecular target: Protein kinase C alpha type (Homo sapiens) (UniProt P17252); test: Agonist activity at protein kinase C alpha at 50 pg/mL; assay type: functional
[66] = molecular target: Protein kinase C beta type (Homo sapiens) (UniProt P05771); test: Agonist activity at protein kinase C beta-1 at 50 pg/mL; assay type: functional
[67] = molecular target: Protein kinase C beta type (Homo sapiens) (UniProt P05771); test: Agonist activity at protein kinase C beta2 at 50 pg/mL; assay type: functional
[68] = molecular target: Protein kinase C delta type (Homo sapiens) (UniProt Q05655); test: Agonist activity at protein kinase C delta at 50 pg/mL; assay type: functional
[69] = molecular target: Protein kinase C epsilon type (Homo sapiens) (UniProt Q02156); test: Agonist activity at protein kinase C epsilon at 50 pg/mL; assay type: functional
[70] = molecular target: T1, Protein kinase C gamma type; test: Agonist activity at protein kinase C gamma at 50 pg/mL; assay type: functional
[71] = Inhibition of human SKW3 cells adhesion to soluble ICAM1; assay type: functional, cell-based

Sequence of Protein kinase C beta type (Homo sapiens) (P05771 2-671 limits assumed): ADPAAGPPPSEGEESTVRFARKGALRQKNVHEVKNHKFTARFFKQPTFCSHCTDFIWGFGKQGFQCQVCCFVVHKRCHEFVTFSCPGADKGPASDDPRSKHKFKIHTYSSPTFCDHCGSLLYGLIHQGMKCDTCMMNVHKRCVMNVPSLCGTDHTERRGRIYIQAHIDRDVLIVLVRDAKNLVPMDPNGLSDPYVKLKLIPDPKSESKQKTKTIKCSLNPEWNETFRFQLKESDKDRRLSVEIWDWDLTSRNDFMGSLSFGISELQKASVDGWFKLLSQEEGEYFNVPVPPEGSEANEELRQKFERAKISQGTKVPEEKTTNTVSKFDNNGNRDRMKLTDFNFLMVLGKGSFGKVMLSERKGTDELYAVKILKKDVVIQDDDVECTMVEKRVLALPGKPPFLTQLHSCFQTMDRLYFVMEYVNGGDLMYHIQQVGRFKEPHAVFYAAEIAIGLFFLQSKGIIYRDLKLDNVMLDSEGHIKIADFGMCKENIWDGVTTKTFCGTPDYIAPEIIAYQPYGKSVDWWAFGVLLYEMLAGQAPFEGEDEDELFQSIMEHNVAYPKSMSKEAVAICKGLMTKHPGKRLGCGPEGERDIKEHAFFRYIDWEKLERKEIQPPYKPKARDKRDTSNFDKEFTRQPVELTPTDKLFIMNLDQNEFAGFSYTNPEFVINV
Sequence of Protein kinase C zeta type (Q05513 whole entry): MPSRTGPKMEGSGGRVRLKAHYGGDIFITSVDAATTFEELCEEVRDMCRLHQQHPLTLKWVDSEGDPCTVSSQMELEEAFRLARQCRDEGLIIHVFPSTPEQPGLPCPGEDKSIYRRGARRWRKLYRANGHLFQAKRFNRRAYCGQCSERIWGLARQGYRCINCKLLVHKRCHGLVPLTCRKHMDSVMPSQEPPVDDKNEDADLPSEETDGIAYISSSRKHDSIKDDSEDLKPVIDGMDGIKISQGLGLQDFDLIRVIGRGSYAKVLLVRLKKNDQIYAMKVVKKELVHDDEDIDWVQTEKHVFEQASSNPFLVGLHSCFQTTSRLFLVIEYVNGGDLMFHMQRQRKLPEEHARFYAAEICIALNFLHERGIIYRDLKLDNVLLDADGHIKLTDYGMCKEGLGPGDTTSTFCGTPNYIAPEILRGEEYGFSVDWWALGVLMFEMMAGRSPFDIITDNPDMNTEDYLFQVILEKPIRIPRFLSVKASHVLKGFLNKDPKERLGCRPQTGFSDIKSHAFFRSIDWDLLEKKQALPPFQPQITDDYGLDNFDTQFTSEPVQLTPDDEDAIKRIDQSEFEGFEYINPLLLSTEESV
Sequence of Protein kinase C epsilon type (Homo sapiens) (Q02156 whole entry): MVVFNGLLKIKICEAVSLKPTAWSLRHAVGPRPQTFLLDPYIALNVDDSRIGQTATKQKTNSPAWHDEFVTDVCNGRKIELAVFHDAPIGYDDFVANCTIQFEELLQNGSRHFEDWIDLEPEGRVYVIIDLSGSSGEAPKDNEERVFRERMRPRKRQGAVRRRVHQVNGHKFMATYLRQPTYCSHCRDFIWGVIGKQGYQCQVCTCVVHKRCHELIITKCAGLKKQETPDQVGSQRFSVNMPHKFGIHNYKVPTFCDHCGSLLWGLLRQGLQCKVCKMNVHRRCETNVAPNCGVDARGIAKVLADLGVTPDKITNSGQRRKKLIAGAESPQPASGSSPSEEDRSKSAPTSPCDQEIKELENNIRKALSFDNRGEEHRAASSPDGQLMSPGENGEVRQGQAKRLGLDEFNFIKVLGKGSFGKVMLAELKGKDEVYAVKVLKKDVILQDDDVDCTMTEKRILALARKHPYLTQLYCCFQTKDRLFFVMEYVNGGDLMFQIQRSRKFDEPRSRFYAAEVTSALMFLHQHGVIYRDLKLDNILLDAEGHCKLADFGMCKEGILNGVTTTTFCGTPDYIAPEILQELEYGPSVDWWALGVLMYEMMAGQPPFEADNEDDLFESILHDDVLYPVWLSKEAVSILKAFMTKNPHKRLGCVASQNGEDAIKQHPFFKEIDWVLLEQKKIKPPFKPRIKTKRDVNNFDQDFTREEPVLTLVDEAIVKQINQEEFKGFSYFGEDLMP
Sequence of Protein kinase C epsilon type (Q02156 whole entry): as above
Sequence of Protein kinase C delta type (Homo sapiens) (Q05655 whole entry, looked up): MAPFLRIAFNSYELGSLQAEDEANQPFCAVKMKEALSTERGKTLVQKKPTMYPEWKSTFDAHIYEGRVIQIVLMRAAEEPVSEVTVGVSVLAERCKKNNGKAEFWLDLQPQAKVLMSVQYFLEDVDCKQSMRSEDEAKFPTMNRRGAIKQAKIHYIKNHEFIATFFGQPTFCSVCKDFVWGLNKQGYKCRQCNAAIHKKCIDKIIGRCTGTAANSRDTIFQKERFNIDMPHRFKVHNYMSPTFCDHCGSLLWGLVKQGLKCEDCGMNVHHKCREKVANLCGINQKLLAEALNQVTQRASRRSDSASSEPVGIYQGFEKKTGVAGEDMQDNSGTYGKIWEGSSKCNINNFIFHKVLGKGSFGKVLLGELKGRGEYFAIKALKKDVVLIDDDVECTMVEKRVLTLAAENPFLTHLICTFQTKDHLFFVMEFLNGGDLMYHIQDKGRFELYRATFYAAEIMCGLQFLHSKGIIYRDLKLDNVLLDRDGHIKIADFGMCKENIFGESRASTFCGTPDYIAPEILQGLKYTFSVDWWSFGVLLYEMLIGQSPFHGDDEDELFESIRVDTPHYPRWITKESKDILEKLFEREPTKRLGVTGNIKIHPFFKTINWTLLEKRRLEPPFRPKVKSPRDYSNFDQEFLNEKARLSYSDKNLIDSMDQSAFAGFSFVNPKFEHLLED

Q: With `CCCCCCCCCCCCCCC[C@]1(C)C[C@](C)(CC(=O)O)OO1` as the molecule, how does the inhibition at 0.5 µg/mL [1] read?
A: 90%

Q: And the inhibition at 10 µg/mL [2]?
A: 90%

Q: What does the source list for `C[C@H]1[C@H](O[C@H]2O[C@@H]3O[C@]4(C)CC[C@H]5[C@H](C)CC[C@@H]([C@H]2C)[C@@]35OO4)O[C@@H]2O[C@]3(C)CC[C@H]4[C@H](C)CC[C@@H]1[C@@]24OO3`?
A: GI50 [3]: > 25 µg/mL; GI50 [4]: > 25 µg/mL; GI50 [5]: > 25 µg/mL; GI50 [6]: 3.5 µg/mL (≈ 6.36 µM); GI50 [7]: > 25 µg/mL; GI50 [8]: > 16.8 µg/mL; GI50 [9]: 1.7 µg/mL (≈ 3.09 µM); GI50 [10]: 1.7 µg/mL (≈ 3.09 µM); GI50 [11]: 0.19 µg/mL (≈ 0.345 µM); GI50 [12]: 1.45 µg/mL (≈ 2.63 µM); GI50 [13]: > 25 µg/mL; GI50 [14]: 3.68 µg/mL (≈ 6.68 µM); GI50 [15]: 1.3 µg/mL (≈ 2.36 µM); GI50 [16]: 1.2 µg/mL (≈ 2.18 µM); GI50 [17]: 18700 nM; GI50 [18]: 710 nM; GI50 ([19]; read-out: GI50): 1.51 µg/mL (≈ 2.74 µM); GI50 ([20]; read-out: GI50): > 25000 nM; GI50 [21]: > 25 µg/mL; GI50 [22]: 22 µg/mL (≈ 39.9 µM); IC50 [23]: 52500 nM; IC50 [24]: 31200 nM; GI50 [25]: 7510 nM; GI50 [26]: 610 nM; GI50 [27]: 1040 nM; GI50 [28]: 2370 nM; GI50 [29]: 660 nM; GI50 [30]: 2160 nM; GI50 [31]: > 25000 nM; GI50 [32]: 3660 nM; GI50 [33]: 1150 nM; GI50 [34]: > 25000 nM; GI50 [35]: 1170 nM; GI50 [36]: > 25000 nM; GI50 [37]: 740 nM; GI50 [38]: 1320 nM; GI50 [39]: 880 nM; GI50 [40]: 1160 nM; GI50 [41]: > 25000 nM; GI50 [42]: > 25000 nM; GI50 [43]: 1 µg/mL (≈ 1.82 µM); GI50 [44]: > 3.6 µg/mL; GI50 [45]: 16.9 µg/mL (≈ 30.7 µM); GI50 [46]: > 25 µg/mL; GI50 [47]: > 25 µg/mL; GI50 [48]: 2 µg/mL (≈ 3.63 µM); GI50 [49]: > 25 µg/mL; GI50 [50]: 8.2 µg/mL (≈ 14.9 µM); GI50 [51]: 8.6 µg/mL (≈ 15.6 µM)

Q: For `CC(=C/C(=O)O)/C=C/C=C(\C)[C@@H]1C=C2C(C)(C)CCC[C@]2(C)OO1`, which IC50 [19] is on record?
A: 2.7 µg/mL (≈ 8.12 µM)

Q: And the IC50 ([52]; Homo sapiens, SF-268, read-out: IC50)?
A: 3.5 µg/mL (≈ 10.5 µM)

Q: And the IC50 [20]?
A: 2.1 µg/mL (≈ 6.32 µM)

Q: What about the IC50 [53] of the same molecule?
A: 2 µg/mL (≈ 6.02 µM)

Q: What about the IC50 [54] of the same molecule?
A: 1.7 µg/mL (≈ 5.11 µM)

Q: Which results are given for `CC(=C/C(=O)O)/C=C/C=C(C)/C=C/[C@@H]1C=C2C(C)(C)CCC[C@]2(C)OO1`?
A: IC50 [19]: 21.9 µg/mL (≈ 61.1 µM); IC50 ([52]; sf-268): Not Active; IC50 [20]: 21 µg/mL (≈ 58.6 µM); IC50 [53]: 19.8 µg/mL (≈ 55.2 µM); IC50 [54]: 13.9 µg/mL (≈ 38.8 µM); Activity [55]: inactive

Q: What does the source list for `CCCCCCCCCCCCCCCC[C@@]1(OC)C=C[C@@H](CC(=O)OC)OO1` [CHONDRILLIN]?
A: EC50 [56]: > 10 µg/mL; IC50 [57]: 0.74 µg/mL (≈ 1.79 µM); IC50 [58]: 0.4 µg/mL (≈ 0.969 µM); IC50 [59]: 72700 nM; IC50 [60]: > 364000 nM; IC50 [61]: 104000 nM; inhibition at 0.05 µg/mL [62]: 50%

Q: Which results are given for `CC/C=C/C(CC)C/C=C/[C@@]1(CC)C[C@H](CC)[C@@H](CC(=O)O)OO1` (stereo partly specified)?
A: MIC [63]: 5 µg/mL (≈ 14.8 µM); IC90 [64]: 5.6 µg/mL (≈ 16.5 µM)

Q: Which results are given for `CC(CCCCCCCCc1ccccc1)C[C@]1(C)C[C@]2(C)OC(=O)C[C@@H]2OO1` (stereo partly specified)?
A: Activity [65]: 19%; Activity [66]: 13%; Activity [67]: 27%; Activity [68]: 9%; Activity [69]: 38%; Activity [70]: 9%

Q: Which IC50 [71] does the source give for `Cc1ccc2c(c1O)C(=O)c1c(cc(O)c(C(=O)O)c1C)[C@]2(C)OO[C@@]1(C)c2cc(O[C@H]3O[C@@H](CO)[C@@H](O)[C@@H](O[C@@H]4O[C@H](CO)[C@H](O)[C@H](O)[C@H]4O)[C@@H]3O)c(C(=O)O)c(C)c2C(=O)c2c1ccc(C)c2O` [ADXANTHROMYCIN B] here?
A: 25 µg/mL (≈ 25.5 µM)

Q: Which inhibition at 0.5 µg/mL [1] does the source give for `CCCCCCCCCCCCCCCC[C@]1(C)C[C@](C)(CC(=O)O)OO1` here?
A: 90%

Q: What about the inhibition at 10 µg/mL [2] of the same molecule?
A: 90%

Q: For `Cc1ccc2c(c1O)C(=O)c1c(cc(O)c(C(=O)O)c1C)[C@]2(C)OO[C@@]1(C)c2cc(O[C@H]3O[C@@H](CO)[C@@H](O)[C@@H](O)[C@@H]3O)c(C(=O)O)c(C)c2C(=O)c2c1ccc(C)c2O` [ADXANTHROMYCIN A], which IC50 [71] is on record?
A: 18.8 µg/mL (≈ 23 µM)

From ChEMBL document CHEMBL1149799, “Bioactive peroxides as potential therapeutic agents” (Eur J Med Chem, 2008)
